Source: US20030083339A1, “Compositions and methods for treating colorectal polyps and cancer” (priority 2001, published 2003)
Marks after values point to notes of the source that are not given here.

Assays:
[1] = test system: colon tumors; test: AOM-induced colon tumors in mouse strain crossbred from 129/Ola and C57BL/6J (Table 3); format: in vivo; conditions: 23 weeks; for Body Weight / Colon Tumors Multiplicity = average number of tumors/mouse / Colon Tumors Prevalence (%) = percent of tumor-bearing mice / Colon Tumors Total Number: AOM 10 mg/kg I.P. 4 consecutive weeks
Experimental: The colons and livers were macroscopically examined. […] Tumor size was measured with a caliper. […] In addition, the size of the tumors in wild type mice was large (over 55% of tumors 22 mm^3). The tumors were predominantly observed in the lower half of the descending colon.

[2] = test system: colon tumors; test: AOM-induced colon tumors in F2 mice crossbred with SWR/J (Table 4); format: in vivo, mouse; conditions: AOM 10 mg/kg I.P. 4 consecutive weeks, 26 weeks
Experimental: . […] The colons and livers were macroscopically examined. […] Tumor size was measured with a caliper.
In Example 2, clear-cut results were obtained that the AT2 receptor is involved in AOM-induced colon cancer. A concern was that this might be true only in the mouse strain crossbred from 129/OIa and C57BL/6J mouse strains. In order to overcome this problem, the AT2-KO mice in this crossbred strain were back-crossed with SWR/J mice, whose susceptibility to AOM is established. During the course of back-crossing, similar experiments were performed as described in Example 1, using F2 male wild and AT2-KO mice.

[3] = test system: cytochrome P450 proteins (CYP1A1, 1A2 and 2E1) in liver; test: inducibility of CYP1A1, 1A2 and 2E1 in the liver after AOM; format: in vivo, mouse; conditions: AOM 15 mg/kg bolus I.P.
Text: Anti-rabbit anti-human CYP1A1/1A2 and CYP2E1 antisera were obtained from Dr. F. P. Guengerich, Department of Biochemistry, Vanderbilt University. See Soucek et al., (1995) Biochem. 34:16013-16021; Shimada et al., (1992) Mol. Pharmacol. 41:856-864. The cross-reactivities of these antibodies to mouse CYP1A1/1A2 and 2E1 have been characterized.
The inducibilities of CYP1A1, 1A2 and 2E1 in the liver were exaimed.

[4] = test system: O^6-methylguanine adduct in colon DNA; test: colonic O^6-methylguanine adduct level after AOM, immuno-slot-blot
Experimental: AT2 receptor blocker PD123319 treatment (15 mg/kg/12 h, gavage administration and 50 μg/ml in drinking tap water) was initiated 3 h prior to the AOM treatment. The control group for the AOM treatment received saline. Mice for the short term study were sacrificed 6 h or 24 h after AOM treatment.
Immediately after the mice were sacrificed by cervical dislocation, the colon was excised, washed with phosphate-buffered saline, divided into proximal and distal segments, and snap-frozen in liquid N2. Small portions of each lobe of the liver were also removed and frozen in the same manner. Tissue was digested in a lysis buffer consisting of 10 mM Tris-HCl, pH 7.4, 1 mM EDTA, 1% SDS, 5× SSC and 0.2 mg/ml Proteinase K. DNA was extracted by phenol/chloroform/isoamyl alcohol and precipitated with ice-cold ethanol by standard protocols. Samples were then treated with RNase A (50 mg/ml) and DNA was fragmented by sonication. The concentration of DNA was determined by the absorbance at 260 nm.
DNA samples were heat-denatured for 10 min, immediately chilled on ice, and mixed with an equal volume of 2 M ammonium acetate. […] Relative blot intensities were measured by densitometry using a Fluor-S image analyzer (Bio-Rad Laboratories, Inc., Hercules, Calif., United States of America).

[5] = test system: hepatic CYP2E1; test: hepatic CYP2E1 protein expression after AOM, Western blot of liver microsomes
Experimental: AT2 receptor antagonist PD123,319 treatment (15 mg/kg/12 h, gavage administration, and 50 μg/ml in drinking tap water) was initiated 3 h prior to the AOM treatment. The liver was dissected out and the microsomal fractions were subjected to SDS-polyacrylamide gel electrophoresis followed by immunoblotting with anti-human CYP2E1 antibodies.
AT2 receptor blocker PD123319 treatment (15 mg/kg/12 h, gavage administration and 50 μg/ml in drinking tap water) was initiated 3 h prior to the AOM treatment. The control group for the AOM treatment received saline. Mice for the short term study were sacrificed 6 h or 24 h after AOM treatment. […] The remaining tissues were frozen in liquid nitrogen and stored at −80° C.
Tissues were individually homogenized by a Polytron homogenizer in three volumes of 1 mM Tris-HCl buffer, pH 7.5, containing 1 mM EDTA, 0.25 M sucrose and protease inhibitor cocktail. The supernatant from 10,000× g centrifugation of the homogenate for 15 min was further centrifuged at 100,000× g for 1 h. The microsomal membranes were suspended in 100 mM NaH2PO4, pH 7.4, 10 mM MgCl2, 20% glycerol, and protease inhibitor cocktail, and 25 μg of the membrane protein was subjected to Western blot analysis.
The liver microsomal membranes were lysed with 0.5 ml lysis buffer (10 mM Tris-HCl (pH 7.4), 1% SDS). After sonication, the lysate was boiled for 5 min. […]

[6] = test system: colon polyp or adenocarcinoma; test: Example 1: course of oral PD123319 treatment of colon polyps and colorectal adenocarcinoma; format: in vivo
Experimental: PD123319, an angiotensin II receptor (AT2 receptor) antagonist, is available in 1-mg, 10-mg, 50-mg, 100-mg, 250 mg, 500 mg, and 1000 mg tablets for oral administration and in 1-mg, 10-mg, 50-mg, 100-mg, 500 mg, 1000 mg, 5000 mg, and 10,000 mg suppositories for rectal administration.
PD123319 is indicated for the treatment of colorectal cancer including non-malignant polyps of the colon and colorectal adenocarcinoma. There are no known contradictions to treatment with PD123319.
A 12-20 week course of therapy yields a remission of adenocarcinoma (e.g., tumor number and/or volume) in greater than 79% of individuals that are diagnosed with at least one adenocarcinoma. Total dose per day is determined by severity (number and/or cancer stage) as assessed by a treating veterinarian or physician. A preferred course of treatment for a patient with colorectal polyps is 10-30 mg (medication) per kg (body weight) per day. A preferred course of treatment for a patient with colorectal adenocarcinoma is 20-30 mg/kg/day. In certain cases, a course of treatment for a patient with colorectal adenocarcinoma is 100 mg/kg/day administered orally or as a suppository. A preferred maintenance or chemoinhibitory course of therapy is typically 1.0 to 10 mg/kg. […]

[7] = molecular target: T1, AT2 receptor (Mus musculus, UniProt P35374); conditions: read-out: IC50 for the inhibition of ligand-receptor binding; cited from earlier work
T1 sequence (P35374 1-363): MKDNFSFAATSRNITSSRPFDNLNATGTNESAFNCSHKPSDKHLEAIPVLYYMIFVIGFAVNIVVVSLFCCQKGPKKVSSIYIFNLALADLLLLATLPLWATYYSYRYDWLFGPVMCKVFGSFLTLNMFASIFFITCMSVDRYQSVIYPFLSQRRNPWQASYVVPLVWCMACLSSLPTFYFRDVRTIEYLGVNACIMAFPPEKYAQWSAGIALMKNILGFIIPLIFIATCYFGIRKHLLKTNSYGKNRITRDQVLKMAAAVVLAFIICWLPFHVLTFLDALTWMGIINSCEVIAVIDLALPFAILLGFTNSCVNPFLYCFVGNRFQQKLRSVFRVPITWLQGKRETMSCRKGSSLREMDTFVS

[8] = chronic administration, 30 mg/kg/day, rats; cited from earlier work
[9] = daily administration of the pressor dose (10-50 mg/kg/day), man and animals; cited from earlier work
[10] = molecular target: T2, mouse angiotensin II type 2 receptor (mouse, UniProt P35374 1-363); test: radioligand-receptor binding on mouse liver and colon plasma membranes
T2 construct: Native receptor in mouse tissue (liver and colon plasma membranes, liver nuclei), not a recombinant construct; also called AT2 receptor; AT2
T2 sequence: T1 sequence (P35374 1-363)

[11] = AOM 10 mg/kg bolus I.P., both wild type and AT2-null mice

With `CN=[N+](C)[O-]` [AOM, azoxymethane] the “Body Weight” value ([1]; AT2-KO mice) was 36.5 ± 1.6 g, the “Colon Tumors Multiplicity = average number of tumors/mouse” value ([1]; AT2-KO mice) was 0.11 and the “Colon Tumors Prevalence (%) = percent of tumor-bearing mice” value ([1]; AT2-KO mice) was 11.1%. For the same molecule, the “Colon Tumors Total Number” value ([1]; AT2-KO mice) was 1, the “Body Weight” value ([1]; Control (wild type) mice) was 36.5 ± 4.3 g and the “Colon Tumors Multiplicity = average number of tumors/mouse” value ([1]; Control (wild type) mice) was 7.38. The “Colon Tumors Prevalence (%) = percent of tumor-bearing mice” value ([1]; Control (wild type) mice) was 100%, the “Colon Tumors Total Number” value ([1]; Control (wild type) mice) was 59 and the “share of tumors 22 mm^3 (large tumors)” value ([1]; wild type mice, AOM 10 mg/kg I.P. 4 weekly) was “over 55%”. The “Colon Tumors Multiplicity” value ([2]; AT2-KO F2 male mice) was 6.3, the “Colon Tumors Prevalence (%)” value ([2]; AT2-KO F2 male mice) was 100.0% and the “Colon Tumors Total Number” value ([2]; AT2-KO F2 male mice) was 50. The “Colon Tumors Volume (mm^3) = total tumor volume/number of tumors” value ([2]; AT2-KO F2 male mice) was 19.8 ± 3.0 mm^3, the “Colon Tumors Multiplicity” value ([2]; Control (wild) F2 male mice) was 12.0 and the “Colon Tumors Prevalence (%)” value ([2]; Control (wild) F2 male mice) was 100.0%. The “Colon Tumors Total Number” value ([2]; Control (wild) F2 male mice) was 96, the “Colon Tumors Volume (mm^3) = total tumor volume/number of tumors” value ([2]; Control (wild) F2 male mice) was 36.8 ± 3.2* mm^3 and the “effect on hepatic cytochrome P450 levels” value ([3]; AT2-KO mice, 24 h after injection) was “decreased substantially”. For the same molecule, the “effect on levels of cytochrome P450 proteins in liver” value ([3]; wild type mouse liver) was “significantly increased”, the “effect on colonic O^6-methylguanine levels” value [4, 11] was “time-dependently increased” and the “effect on CYP2E1 protein expression in liver” value [5, 11] was “significantly downregulated”.

For `Cc1cc(Cn2cnc3c2C[C@@H](C(=O)O)N(C(=O)C(c2ccccc2)c2ccccc2)C3)ccc1N(C)C` [PD123319], the “colon polyp or adenocarcinoma number as determined by endoscopy” value ([6]; 4-8 week course, oral administration) is listed as “significant reduction”, the “remission of adenocarcinoma (tumor number and/or volume)” value ([6]; 12-20 week course of therapy, individuals diagnosed with at least one adenocarcinoma) is listed as “greater than 79 % of individuals” and the IC50 [7] is listed as 10 nM. The adverse effects [8] was “does not show any adverse effects”, the “effect on AOM-induced increase in the colonic O^6-methylguanine level” value ([4]; wild type mice, 15 mg/kg/12h by gavage and 0.35 mg/kg/h in drinking water, 24 h after AOM 10 mg/kg) was “markedly attenuated” and the “effect on AOM-induced CYP2E1 downregulation in the liver” value ([5]; wild type mice, pretreatment 15 mg/kg/12 h by gavage and 0.35 mg/kg/h in drinking water, AOM 10 mg/kg I.P., 24 h) was “significantly attenuated”.

For `CCCCc1nc(Cl)c(CO)n1Cc1ccc(-c2ccccc2-c2nn[nH]n2)cc1` [losartan], the side effects [9] is given as “no serious side effects”.

XRVYIHPI (sarcosine at position 1 in place of Asp; 125I label, X stands for sarcosine) [[^125I]Sar^1·Ile^8·Ang II]: binds [10].
